This is an account of results in US20230017539A1, “TRI-HETEROCYCLIC COMPOUND AS JAK INHIBITOR, AND USE THEREOF” (CHIA TAI TIANQING PHARMACEUTICAL GROUP CO., LTD., priority 2019, published 2023).

One data set has as its target T1, JAK3(h) (Homo sapiens, UniProt P52333).
T1 construct: purchased Eurofins, UK
T1 sequence (P52333 1-1124): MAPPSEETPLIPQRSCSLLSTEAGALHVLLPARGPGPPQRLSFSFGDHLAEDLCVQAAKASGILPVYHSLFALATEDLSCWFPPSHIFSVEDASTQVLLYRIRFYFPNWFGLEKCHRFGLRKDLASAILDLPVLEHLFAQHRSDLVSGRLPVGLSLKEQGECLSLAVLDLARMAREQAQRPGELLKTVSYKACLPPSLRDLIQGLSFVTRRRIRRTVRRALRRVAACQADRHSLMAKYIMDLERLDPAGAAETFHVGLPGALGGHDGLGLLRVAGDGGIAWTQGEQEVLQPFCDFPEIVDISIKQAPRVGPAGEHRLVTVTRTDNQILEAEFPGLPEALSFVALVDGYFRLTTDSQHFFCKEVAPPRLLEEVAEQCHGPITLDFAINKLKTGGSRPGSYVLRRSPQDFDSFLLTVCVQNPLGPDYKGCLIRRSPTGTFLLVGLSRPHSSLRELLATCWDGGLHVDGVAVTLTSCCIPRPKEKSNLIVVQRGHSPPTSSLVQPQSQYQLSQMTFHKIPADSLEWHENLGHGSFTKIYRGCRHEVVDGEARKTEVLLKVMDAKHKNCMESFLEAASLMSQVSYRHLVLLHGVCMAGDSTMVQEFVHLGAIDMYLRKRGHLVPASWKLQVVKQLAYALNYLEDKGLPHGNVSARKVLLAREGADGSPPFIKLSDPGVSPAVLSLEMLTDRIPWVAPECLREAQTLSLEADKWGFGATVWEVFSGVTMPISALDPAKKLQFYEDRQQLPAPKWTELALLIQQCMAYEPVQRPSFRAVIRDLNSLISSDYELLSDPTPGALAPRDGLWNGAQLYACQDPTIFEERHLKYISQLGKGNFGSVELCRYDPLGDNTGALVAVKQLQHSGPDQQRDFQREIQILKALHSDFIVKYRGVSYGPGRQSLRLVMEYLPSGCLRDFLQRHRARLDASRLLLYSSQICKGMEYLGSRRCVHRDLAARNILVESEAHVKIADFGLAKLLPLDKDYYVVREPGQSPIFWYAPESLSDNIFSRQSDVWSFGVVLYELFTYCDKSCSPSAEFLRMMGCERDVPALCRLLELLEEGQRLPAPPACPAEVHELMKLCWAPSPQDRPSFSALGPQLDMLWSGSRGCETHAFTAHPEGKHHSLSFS
Put plainly: In vitro activity assay of JAK3 kinase (radiometric, [γ-33P]-ATP). It is filed as biochemical. To be noted: recombinant human JAK3, 40 min at room temperature. The protocol: (§1) Recombinant human JAK1, JAK2, JAK3 and Tyk2 […], and main instruments and reagents were all provided by Eurofins, UK.
(§2) Dilution of JAK2, JAK3 and TYK2: 20 mM 3-(N-morpholino)propanesulfonic acid (MOPS), 1 mM EDTA, 0.01% Brij-35.5% glycerol, 0.1% β-mercaptoethanol, and 1 mg/mL BSA; dilution of JAK1: 20 mM TRIS, 0.2 mM EDTA, 0.1% β-mercaptoethanol, and 0.01% Brij-35.5% glycerol. All compounds were prepared as 100% DMSO solutions, and the concentration was brought to 50 times the final assay concentration. A test compound was diluted with a 3-fold gradient, with a total of 9 final concentrations ranging from 10 μM to […]. The DMSO content in the assay reaction was 2%. The working stock solution of the compound was added into the assay wells as a first component of the reaction, and the remaining components were then added according to the protocol detailed for the assay below.
JAK3(h) was incubated with 8 mM MOPS pH 7.0, 0.2 mM EDTA, 500 μM GGEEEEYFELVKKKK (SEQ ID NO: 3), 10 mM magnesium acetate and [γ-^33P]-ATP (the activity and concentration were tailored as required). The reaction was started by adding a Mg/ATP mixture, and terminated by adding 0.5% phosphoric acid after 40 min of incubation at room temperature. 10 μL of the reactant was then dotted on a P30 filter pad, washed three times with 0.425% phosphoric acid and once with methanol within 4 minutes, and dried, and scintillation counting was performed.
(§3) The IC50 results were obtained by analysis using XLFITS (formula 205) of IDBS company and detailed in Table 1.

The next data set has as its target T2, TYK2(h) (Homo sapiens, UniProt P29597).
T2 construct: purchased Eurofins, UK
The experiment in a line: In vitro activity assay of TYK2 kinase (radiometric, [γ-33P]-ATP). It is filed as biochemical. To be noted: recombinant human Tyk2, 40 min at room temperature. The protocol:
as §1, §2
TYK2(h) was incubated with 8 mM MOPS pH 7.0, 0.2 mM EDTA, 250 μM GGMEDIYFEFMGGKKK (SEQ ID NO:4), 10 mM magnesium acetate and [γ-^33P]-ATP (the activity and concentration were tailored as required). The reaction was started by adding a Mg/ATP mixture, and terminated by adding 0.5% phosphoric acid after 40 min of incubation at room temperature. 10 μL of the reactant was then dotted on a P30 filter pad, washed three times with 0.425% phosphoric acid and once with methanol within 4 minutes, and dried, and scintillation counting was performed.
as §3

A further data set concerns the target T3, JAK1(h) (Homo sapiens, UniProt P23458).
T3 construct: purchased Eurofins, UK
Put plainly: In vitro activity assay of JAK1 kinase (radiometric, [γ-33P]-ATP). It is filed as biochemical. To be noted: recombinant human JAK1, 40 min at room temperature. As for the experimental part: as §1, §2
JAK1(h) was incubated with 20 mM Tris/HC pH 7.5, 0.2 mM EDTA, 500 μM MGEEPLYWSFPAKKK (SEQ ID NO: 1), 10 mM magnesium acetate and [γ-^33P]-ATP (the activity and concentration were tailored as required). The reaction was started by adding a Mg/ATP mixture, and terminated by adding 0.5% phosphoric acid after 40 min of incubation at room temperature. 10 μL of the reactant was then dotted on a P30 filter pad, washed three times with 0.425% phosphoric acid and once with methanol within 4 minutes, and dried, and scintillation counting was performed.
as §3

Data set [1] can be described thus: Pharmacokinetic (PK) experiment in rats. To be noted: Sprague-Dawley (SD), rat, plasma, po, male SD rats; for AUC(0-inf) / Cmax / half-life: fasted, tail vein injection 1 mg/kg and gavage 5 mg/kg, route not given; for AUC(0-inf): read-out: AUC0-inf (area under plasma concentration-time curve from time 0 extrapolated to infinite time); for Cmax: read-out: Cmax (peak concentration); for half-life: read-out: T1/2 (half-life) (converted); for bioavailability: gavage 5 mg/kg vs tail vein injection 1 mg/kg. In kind it is in vivo. The protocol:
A test compound was dissolved [5% DMSO, 95% (12% SBE-β-CD)] to give a clear solution, which was administered into male rats (SD) (overnight fasting, 7-8 weeks old) by tail vein injection and by gavage, respectively. After administration of the test compound, blood was collected from the mandibular vein and centrifuged to obtain plasma at 0.117, 0.333, 1, 2, 4, 7 and 24 h in the tail vein injection group (1 mg/kg), and at 0.25, 0.5, 1, 2, 4, 8 and 24 h in the gavage group (5 mg/kg). The plasma concentration was measured using LC-MS/MS method, and the relevant pharmacokinetic parameters were calculated using WinNonlin™ Version 6.3 pharmacokinetic software with non-compartmental model linear logarithmic trapezoidal method.

The term IC50 denotes the concentration that inhibits the measured activity by half.

T3 sequence (P23458 whole entry): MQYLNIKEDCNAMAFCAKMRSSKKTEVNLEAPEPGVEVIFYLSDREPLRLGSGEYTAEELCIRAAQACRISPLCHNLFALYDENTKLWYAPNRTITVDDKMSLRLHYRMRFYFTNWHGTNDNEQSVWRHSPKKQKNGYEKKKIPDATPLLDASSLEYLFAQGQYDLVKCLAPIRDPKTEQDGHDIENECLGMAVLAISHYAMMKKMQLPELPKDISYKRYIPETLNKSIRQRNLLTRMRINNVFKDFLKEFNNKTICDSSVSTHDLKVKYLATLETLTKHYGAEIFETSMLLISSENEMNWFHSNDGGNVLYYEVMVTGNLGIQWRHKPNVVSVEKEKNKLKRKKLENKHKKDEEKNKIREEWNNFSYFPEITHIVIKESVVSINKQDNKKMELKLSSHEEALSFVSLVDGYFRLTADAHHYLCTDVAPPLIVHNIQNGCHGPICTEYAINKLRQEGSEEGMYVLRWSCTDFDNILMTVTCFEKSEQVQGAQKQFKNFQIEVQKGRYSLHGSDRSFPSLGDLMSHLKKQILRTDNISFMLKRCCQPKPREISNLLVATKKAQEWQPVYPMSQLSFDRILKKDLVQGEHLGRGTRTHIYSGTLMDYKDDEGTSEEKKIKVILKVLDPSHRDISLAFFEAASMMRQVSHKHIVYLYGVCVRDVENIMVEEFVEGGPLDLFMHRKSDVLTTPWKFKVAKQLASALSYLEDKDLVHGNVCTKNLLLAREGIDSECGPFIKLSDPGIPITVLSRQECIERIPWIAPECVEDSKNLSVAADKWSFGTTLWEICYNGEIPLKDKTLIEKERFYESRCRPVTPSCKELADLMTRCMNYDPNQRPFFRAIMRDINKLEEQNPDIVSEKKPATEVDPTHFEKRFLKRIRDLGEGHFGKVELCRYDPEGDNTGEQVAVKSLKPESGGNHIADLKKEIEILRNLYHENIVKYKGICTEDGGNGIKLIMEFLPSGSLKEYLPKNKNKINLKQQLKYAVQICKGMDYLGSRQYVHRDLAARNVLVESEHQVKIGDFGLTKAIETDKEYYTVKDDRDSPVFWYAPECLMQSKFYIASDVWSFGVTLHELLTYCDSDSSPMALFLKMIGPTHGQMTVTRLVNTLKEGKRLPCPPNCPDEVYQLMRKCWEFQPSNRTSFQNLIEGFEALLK
T2 sequence (P29597 whole entry): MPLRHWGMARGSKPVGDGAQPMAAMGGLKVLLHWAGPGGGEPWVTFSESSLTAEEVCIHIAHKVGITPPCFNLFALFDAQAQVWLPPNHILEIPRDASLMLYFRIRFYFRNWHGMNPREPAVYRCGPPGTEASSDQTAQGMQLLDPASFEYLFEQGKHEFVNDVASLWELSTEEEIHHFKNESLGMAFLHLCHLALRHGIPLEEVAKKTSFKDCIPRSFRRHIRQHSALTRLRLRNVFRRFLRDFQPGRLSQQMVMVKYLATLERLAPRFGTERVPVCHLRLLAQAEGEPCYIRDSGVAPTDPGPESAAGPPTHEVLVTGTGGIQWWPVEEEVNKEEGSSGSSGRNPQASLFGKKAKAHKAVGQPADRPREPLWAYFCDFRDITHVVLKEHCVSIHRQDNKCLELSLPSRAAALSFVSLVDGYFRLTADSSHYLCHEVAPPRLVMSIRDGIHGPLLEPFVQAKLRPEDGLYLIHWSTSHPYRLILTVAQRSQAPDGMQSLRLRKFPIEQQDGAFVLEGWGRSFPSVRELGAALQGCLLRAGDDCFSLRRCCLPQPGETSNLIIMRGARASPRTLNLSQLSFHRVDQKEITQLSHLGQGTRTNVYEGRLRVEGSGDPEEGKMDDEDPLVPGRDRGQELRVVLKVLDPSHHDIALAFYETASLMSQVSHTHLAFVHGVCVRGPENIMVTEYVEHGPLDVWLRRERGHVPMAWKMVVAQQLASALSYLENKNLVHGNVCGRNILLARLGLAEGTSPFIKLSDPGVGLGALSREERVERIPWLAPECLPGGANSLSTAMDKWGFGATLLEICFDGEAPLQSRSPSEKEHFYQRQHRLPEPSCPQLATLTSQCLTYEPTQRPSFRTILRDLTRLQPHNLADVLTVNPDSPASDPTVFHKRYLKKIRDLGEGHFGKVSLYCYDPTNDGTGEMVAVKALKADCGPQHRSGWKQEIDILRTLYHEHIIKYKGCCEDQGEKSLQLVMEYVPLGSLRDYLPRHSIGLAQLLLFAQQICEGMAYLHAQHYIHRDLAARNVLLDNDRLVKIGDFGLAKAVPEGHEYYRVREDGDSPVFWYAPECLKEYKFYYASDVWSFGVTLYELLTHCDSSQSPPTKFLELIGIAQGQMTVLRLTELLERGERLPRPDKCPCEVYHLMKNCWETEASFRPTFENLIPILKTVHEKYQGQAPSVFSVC

`N#Cc1cc2n(n1)CC(n1cnc3cnc4[nH]ccc4c31)CC2` (single isomer, unassigned) [Compound 1A]: on JAK3(h), the concentration for half-maximal inhibition (IC50) amounted to 30.8 nM. Also, the IC50 at TYK2(h) was determined as 35.8 nM. On JAK1(h), the IC50 was found to be 1.3 nM. Also, in data set [1], the AUC(0-inf) is 8.51 µM·h, the Cmax is 2.94 µM, the half-life was 1.35 h and the bioavailability stood at 41.8%.
For the molecule `COc1nc2cnc3[nH]ccc3c2n1[C@@H]1CCc2cc(C#N)nn2C1` [Compound 4], the IC50 on JAK3(h) was 27.3 nM. Besides, on TYK2(h), the IC50 was found to be 50.3 nM. Besides, the IC50 at JAK1(h) was found to be 0.9 nM. In data set [1], the AUC(0-inf) was 67.8 µM·h, the Cmax stood at 10.2 µM, the half-life was 3.65 h and the bioavailability stood at 119%.
